Reference: patent US5652335A, “Physiologically active substance well capable of permeating biomembrane” (Teikoku Seiyaku Kabushiki Kaisha, priority 1990, dated 1997)

How the values were obtained:
[1] = tested on: extirpated intestine of guinea pig; test: suppressing effect on shrinkage of extirpated intestine of guinea pig by electric stimulations (method of Kosterlitz); type: cell-based; settings: for ED50 (mol) (mean ± s.e.m.): suppression of electrically stimulated shrinkage of extirpated guinea pig intestine, in vitro
Protocol: Adamantylated enkephalin derivatives a and b obtained in Examples 1 and 2 were examined for in vivo analgesic effect and in vitro suppressing effect to shrinkage of extirpated intestine of guinea pig by electric stimulations.
A suppressing effect for the shrinkage of extirpated intestine of guinea pig of the adamantylated enkephalin derivatives a and b was measured in accordance with the method of Kosterlitz (H. W. Kosterlitz, A. A. Watterfield, Ann. Rev. Pharmacol., 15, 29, (1975)).

[2] = tested on: mouse (dd-Y series); test: in vivo analgesic activity by Randall Selitto method; settings: subcutaneous administration to mouse, 1-50 mg/kg, in DMA: physiological saline (4:6); FIG. 2-5
Protocol: Adamantylated enkephalin derivatives a and b are subcutaneously administrated to a mouse, and an analgesic effect in the central nervous system was measured by Randall Selitto method. That is, the derivatives a and b were dissolved in a mixed solution of DMA: physiological saline solution (4:6) and about 100 μl of the solution was subcutaneously administrated to a mouse (dd-Y series: about 20 g) (1-50 mg/kg), and the analgesic effect was measured on every predetermined time interval after the administration by the Randall Selitto method.

Row | Compound | Relative Potency [1] | ED50 (mol) (mean ± s.e.m.) [1] | analgesic activity [2] | suppression for shrinkage, antagonism by naloxon ([1]; extirpated guinea pig intestine)
1 | CC(C)C[C@H](NC(=O)[C@H](Cc1ccccc1)NC(=O)CNC(=O)[C@@H](C)NC(=O)[C@@H](N)Cc1ccc(O)cc1)C(=O)O [[D-Ala^2] Leucine enkephalin, H-Tyr-D.Ala-Gly-Phe-Leu-OH, reference compound] | 0.89 | 3.6 ± 1.17 × 10^-8 mol | – | –
2 | H-Tyr-D.Ala-Gly-Phe-Leu-NH-Ada [Derivative b] | 2.13 | 1.5 ± 0.71 × 10^-8 mol | inferior to morphine hydrogen chloride but superior to the controls | showed suppression for shrinkage each of which was antagonized by naloxon
